Here are results for ten compounds from US12479845B2, “Imidazopyridine derivative compounds and use of same” (HANMI PHARM. CO., LTD., priority 2019, dated 2025).

One experiment has as its system NCI-H1417 cells. The experiment can be described thus: Cell growth suppression test (CellTiter-Glo Luminescent Cell Viability Assay, 10 days treatment). The class given is cell-based. Conditions: treated for 10 days. As to the method:
Cell growth suppression effects of the synthesized compounds on NCI-H1417 cells were identified. The cells were treated with the synthesized compounds for 10 days. Then, in order to test the cell growth suppression, CellTiter-Glo Luminescent Cell Viability Assay (available from Promega, USA) was used. This test is to measure emission signals proportional to the number of ATPs based on a fixed amount of ATPs, which represents the presence of metabolically active cells, thereby determining the number of viable cells. The results are expressed as a Gl50 value. As for a control, GSK2879552 (available from GlaxoSmithKline USA) was used.
On the technique in general: Cellular ATP, detected with luciferase, serves as a proxy for viable cell number.

For a further experiment, the target named is LSD1 (Homo sapiens (Human), UniProt O60341). The experiment can be described thus: Biochemical analysis of LSD1 histone demethylase inhibition (BPS Bioscience LSD1 fluorescence analysis kit, HRP/Amplex Red). As to conditions: demethylation of Lys4 of histone H3. As to the method: The biochemical inhibition activity of the synthesized compounds on LSD1 was measured. The activity measurement was performed using LSD1 fluorescence analysis kit (available from BPS Bioscience Co., Ltd., Catalog No: 50106). This analysis kit is designed to measure activity of LSD1 enzyme. H2O2 generated upon demethylation of Lys4 moiety of histone H3 by LSD1 is reacted with HRP/Amplex Red reagent to form fluorescent Resorufin, which is measured by this kit, thereby confirming demethylation.
The results are expressed as an IC50 value. As for a control, GSK2879552 (available from GlaxoSmithKline USA) was used.

For orientation: GI50 means the concentration giving 50% growth inhibition. Read a low GI50 as greater sensitivity of the cells. As usually defined, the IC50 is the point on the concentration scale where inhibition reaches its midpoint. As for `Cc1ccc(-n2c(-c3ccc(C#N)c(F)c3)nc3c(N4CCC[C@@H](N)C4)ccnc32)cc1` [Example 28, (R)-4-(7-(3-aminopiperidine-1-yl)-3-(p-tolyl)-3H-imidazo[4,5-b]pyridine-2-yl)-2-fluorobenzonitrile], halving of growth in the experiment with NCI-H1417 cells (Homo sapiens, 240 h) (GI50) required 37 nM. Moreover, the IC50 against LSD1 was found to be 40 nM.
As to `N#Cc1ccc(-c2nc3c(N4CCC[C@@H](N)C4)ccnc3n2-c2c(F)cc(C3CC3)cc2F)cc1F` [Example 18, (R)-4-(7-(3-aminopiperidine-1-yl)-3-(4-cyclopropyl-2,6-difluorophenyl)-3H-imidazo[4,5-b]pyridine-2-yl)-2-fluorobenzonitrile], the concentration for 50% growth inhibition (GI50) in the experiment with NCI-H1417 cells (Homo sapiens, 240 h) came to 46 nM. Also, at LSD1, half-maximal inhibition (IC50) required 38 nM.
`Cc1ccc(-n2c(-c3ccc(C#N)c(F)c3)nc3c(N4CCC[C@@H](N)C4)ccnc32)c(F)c1` [Example 7, (R)-4-(7-(3-aminopiperidine-1-yl)-3-(2-fluoro-4-methylphenyl)-3H-imidazo[4,5-b]pyridine-2-yl)-2-fluorobenzonitrile]: the GI50 in the experiment on NCI-H1417 cells (Homo sapiens, 240 h) worked out at 99 nM. Further, inhibition at LSD1 was half-maximal at 26 nM (IC50).
Take “4-(7-((R)-3-aminopiperidine-1-yl)-3-(2-fluoro-4-((S)-3-hydroxypyrrolidine-1-yl)phenyl)-3H-imidazo[4,5-b]pyridine-2-yl)-2-fluorobenzonitrile [Example 35]”: the GI50 in the experiment with NCI-H1417 cells was 17 nM. At LSD1, this compound registered an IC50 of 45 nM.
In the case of `CO[C@H]1CCN(c2ccc(-n3c(-c4ccc(C#N)c(F)c4)nc4c(N5CCC6(CCNC6)CC5)ccnc43)c(F)c2)C1` [Example 60, (S)-2-fluoro-4-(3-(2-fluoro-4-(3-methoxypyrrolidine-1-yl)phenyl)-7-(2,8-diazaspiro[4.5]decane-8-yl)-3H-imidazo[4,5-b]pyridine-2-yl)benzonitrile], in the experiment with NCI-H1417 cells (Homo sapiens, 240 h), growth was halved (GI50) at 32 nM. Besides, the IC50 at LSD1 came to 100 nM.
On to `N#Cc1ccc(-c2nc3c(N4CCC[C@@H](N)C4)ccnc3n2-c2ccc(C3CC3)cc2)cc1` [Example 5, (R)-4-(7-(3-aminopiperidine-1-yl)-3-(4-cyclopropylphenyl)-3H-imidazo[4,5-b]pyridine-2-yl)benzonitrile], for which the GI50 in the experiment on NCI-H1417 cells (Homo sapiens, 240 h) stood at 159 nM. Moreover, at LSD1, the IC50 turned out to be 101 nM.
`N#Cc1ccc(-c2nc3c(N4CCC(N)CC4)ccnc3n2-c2ccc(C3CC3)cc2)cc1` [Example 3, 4-(7-(4-aminopiperidine-1-yl)-3-(4-cyclopropylphenyl)-3H-imidazo[4,5-b]pyridine-2-yl)benzonitrile] had a GI50 in the experiment on NCI-H1417 cells (Homo sapiens, 240 h) of 230 nM. Moreover, at LSD1, it took 53 nM to reach half-maximal inhibition (IC50).
The like results for `N#Cc1ccc(-c2nc3c(N4CCC[C@@H](N)C4)ccnc3n2-c2ccc(N3CCC(F)(F)C3)cc2F)cc1F` [Example 26, (R)-4-(7-(3-aminopiperidine-1-yl)-3-(4-(3,3-difluoropyrrolidine-1-yl)-2-fluorophenyl)-3H-imidazo[4,5-b]pyridine-2-yl)-2-fluorobenzonitrile] were, in that order, 26 nM and 29 nM.
`CN[C@@H]1CCCN(c2ccnc3c2nc(-c2ccc(C#N)cc2)n3-c2ccc(C3CC3)cc2)C1` [Example 4, (R)-4-(3-(4-cyclopropylphenyl)-7-(3-(methylamino)piperidine-1-yl)-3H-imidazo[4,5-b]pyridine-2-yl)benzonitrile] showed a GI50 in the experiment on NCI-H1417 cells (Homo sapiens, 240 h) of 103 nM. The same compound registered an IC50 at LSD1 of 44 nM.
On to `Cc1ccc(-n2c(-c3ccc(C#N)cc3)nc3c(N4CCC[C@@H](N)C4)ccnc32)cc1` [Example 1, (R)-4-(7-(3-aminopiperidine-1-yl)-3-(p-tolyl)-3H-imidazo[4,5-b]pyridine-2-yl)benzonitrile], for which growth in the experiment with NCI-H1417 cells (Homo sapiens, 240 h) was halved (GI50) at 90 nM. On LSD1, this compound showed an IC50 of 56 nM.
